Laboratory results from paper PMC8070829, “Discovery of New Coumarin-Based Lead with Potential Anticancer, CDK4 Inhibition and Selective Radiotheranostic Effect: Synthesis, 2D & 3D QSAR, Molecular Dynamics, In Vitro Cytotoxicity, Radioiodination, and Biodistribution Studies” (Molecules, 2021).
Read-outs that look alike come from different tables or passages of the source.

What was measured:
CHO-K1 cells = assay: In vitro cytotoxicity, CHO-K1; assay type: cell-based, hamster; conditions: CHO-K1 ovarian cell line
Excerpt: (§1) Mammalian cell lines: MCF-7 cells (human breast cancer) cell line, A-549 (human Lung Carcinoma) and CHO-K1 cells (hamster ovary cancer) cell line were obtained from the American Type Culture Collection (ATCC, Rockville, MD). Fetal bovine serum, RPMI-1640, HEPES buffer solution, L-glutamine, gentamycin and 0.25% Trypsin-EDTA were purchased from Lonza (Belgium). All reagents and chemicals were of pharmaceutical pure grade. Non-carrier added Na^131I solution (pH = 7) was purchased from the Research and Production Facility, The Egyptian Atomic Energy Authority. Chemicals were purchased from Sigma Aldrich and Lonza. Monitoring of chemical reactions was done by using analytical TLC with Merck 60 F-254 silica-gel plates (Merck, Germany), and visualization was done with ultraviolet light.
(§2) Cytotoxicity study was performed at the Regional Centre for Mycology and Biotechnology (RCMB), Al-Azhar University. Mammalian cell lines: human breast cancer cell line (MCF-7 cells), human colon cancer cell line (HCT-116 cells), and human lung cancer cell line (A-549 cells) were obtained from VACSERA Tissue Culture Unit, Cairo, Egypt. The cells were propagated in Dulbecco’s modified Eagle’s medium supplemented with 10% heat-inactivated fetal bovine serum, 1% L-glutamine, HEPES buffer, and 50 μg/mL gentamycin. All cells were maintained at 37 °C in a humidified atmosphere with 5% CO2 and were subcultured two times a week. For the cytotoxicity assay, the cells were seeded in 96-well plate at a cell concentration of 1 × 10^4 cells per well in 100 μL of growth medium. Fresh medium containing different concentrations of the test sample was added after 24 h of seeding. Serial two-fold dilutions of the tested chemical compound were added to confluent cell monolayers dispensed into 96-well, flat-bottomed microtiter plates (Falcon, NJ, USA) using a multichannel pipette. The microtiter plates were incubated at 37 °C in a humidified incubator with 5% CO2 for a period of 48 h. Three wells were used for each concentration of the test sample. Control cells were incubated without test sample and with or without DMSO. The little percentage of DMSO present in the wells (maximal 0.1%) was found not to affect the experiment. After incubation of the cells for at 37 °C, various concentrations of sample were added, and the incubation was continued for 24 h, and viable cells yield was determined by a colorimetric method. In brief, after the end of the incubation period, media were aspirated, and the crystal violet solution (1%) was added to each well for at least 30 min. The stain was removed, and the plates were rinsed using tap water until all excess stain is removed. Glacial acetic acid (30%) was then added to all wells and mixed thoroughly, and then the absorbance of the plates was measured after gently shaken on a microplate reader, using a test wavelength of 490 nm. All results were corrected for background absorbance detected in wells without added stain. Treated samples were compared with the cell control in the absence of the tested compound. All experiments were carried out in triplicate. The cell cytotoxic effect of each tested compound was calculated. The optical density was measured with the microplate reader to determine the number of viable cells, and the percentage of […] was calculated as (1 − (ODt/ODc)) × 100% where ODt is the mean optical density of wells treated with the tested sample and ODc is the mean optical density of untreated cells. The relation between surviving cells and drug concentration is plotted to get the survival curve of each tumor cell line after treatment with the specified compound.

A-549 cells = assay: In vitro cytotoxicity, A-549; assay type: cell-based; conditions: Homo sapiens, A549; A-549 cell line
Excerpt: as §1, §2

MCF-7 cells = assay: In vitro cytotoxicity, MCF-7; assay type: cell-based; conditions: Homo sapiens, MCF7, MCF-7 breast cancer cell line
Excerpt: as §1, §2

CDK4 enzyme = target: T1, CDK4 enzyme (Homo sapiens, UniProt P11802); assay: CDK4 enzyme inhibition assay; assay type: biochemical
T1 construct: purchased Reaction Biology Corp. (Kinase HotSpot service)
T1 sequence (P11802 whole entry): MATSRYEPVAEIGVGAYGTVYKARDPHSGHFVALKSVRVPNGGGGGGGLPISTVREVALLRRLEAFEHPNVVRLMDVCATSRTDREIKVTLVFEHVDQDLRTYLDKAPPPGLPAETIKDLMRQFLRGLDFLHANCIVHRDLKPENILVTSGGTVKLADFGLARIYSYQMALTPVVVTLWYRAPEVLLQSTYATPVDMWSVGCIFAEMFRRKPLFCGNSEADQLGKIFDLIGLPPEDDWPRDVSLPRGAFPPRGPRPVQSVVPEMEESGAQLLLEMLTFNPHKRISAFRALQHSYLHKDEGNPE
T1 sequence (P24385 whole entry partner): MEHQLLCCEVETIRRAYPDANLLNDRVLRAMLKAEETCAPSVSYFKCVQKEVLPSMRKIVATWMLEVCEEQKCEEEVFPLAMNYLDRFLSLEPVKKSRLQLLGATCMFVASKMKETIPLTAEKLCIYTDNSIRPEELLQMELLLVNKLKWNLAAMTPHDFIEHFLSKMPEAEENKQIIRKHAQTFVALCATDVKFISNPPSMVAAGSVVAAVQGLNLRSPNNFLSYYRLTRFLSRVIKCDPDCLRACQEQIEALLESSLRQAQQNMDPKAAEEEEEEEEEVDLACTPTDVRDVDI
Experimental: Reaction Biology Corp. Kinase HotSpotSM service (http://www.reactionbiology.com, accessed on 1 April 2019) was used for screening of tested compounds. CDK4 Kinase inhibitory activities were assessed by the HotSpot assay platform, which contained specific kinase/substrate pairs along with required cofactors. Base reaction buffer: 20 mM Hepes (pH 7.5), 10 mM MgCl2, 1 mM EGTA, 0.02% Brij35, 0.02 mg/mL BSA, 0.1 mM Na3VO4, 2 mM DTT, 1% DMSO. Testing compounds were dissolved in 100% DMSO to specific concentration. The serial dilution was conducted in DMSO. The reaction mixture containing the examined compound and 33P-ATP was incubated at room temperature for 2 h and radioactivity was detected by the filter-binding method. Kinase activity data were expressed as the percent remaining kinase activity in test samples compared to vehicle (dimethyl sulfoxide) reactions.
For CDK4 enzyme inhibition, CDK4 ELISA kit, Cloud-Clone Corp, US was used. This kit is used for the in vitro quantitative measurement of CDK4 concentrations in tissue homogenates, cell lysates and other biological fluids with high sensitivity and specificity. The cancer cells were treated with different amounts of each compound according to the aforementioned protocol. In addition, the cells were lysed and then treated as instructed by the manufacturer’s protocol. The absorbance of each well was detected at 450 nm using an ELISA plate reader. The results are reported as half maximal inhibitory concentration (IC50).

CDK4 [1] = conditions: cited from earlier work
CDK4 [2] = conditions: cited from earlier work; remark: listed apart in the source
CDK6 = conditions: cited from earlier work
[3] = N-aryl aminothiazoles, in vitro

Structure (SMILES)	IC50 (CHO-K1 cells) [nM]	IC50 (A-549 cells) [nM]	IC50 (MCF-7 cells) [nM]	melting point [°C]	also measured
CNC(=S)NN=C(C)c1cc2cc(Br)ccc2oc1=O [Compound 2a]	604	451	161	220	–
C/C(=N\NC(=S)Nc1ccccc1)c1cc2cc(Br)ccc2oc1=O [Compound 2b]	54	15	–	–	IC50 (CDK4 enzyme): 36 nM
CC(=NN=C1SCC(=O)N1C)c1cc2cc(Br)ccc2oc1=O [Compound 3a]	735	560	138	250 to 252	–
CC(=NN=C1SCC(=O)N1c1ccccc1)c1cc2cc(Br)ccc2oc1=O [Compound 3b]	127	56	116	–	IC50 (CDK4 enzyme): 127 nM
CC(=NN=c1scc(-c2ccccc2)n1C)c1cc2cc(Br)ccc2oc1=O [Compound 4a, 6-Bromo-3-(1-((3-methyl-4-phenylthiazol-2(3H)-ylidene)hydrazono)ethyl)-2H-chromen-2-one]	757	537	360	200	–
CC(=NN=c1scc(-c2ccccc2)n1-c1ccccc1)c1cc2cc(Br)ccc2oc1=O [Compound 4b, 6-Bromo-3-(1-((3,4-diphenylthiazol-2(3H)-ylidene)hydrazono)ethyl)-2H-chromen-2-one]	968	784	861	234	–
CC(=NN=c1scc(-c2ccc(Br)cc2)n1C)c1cc2cc(Br)ccc2oc1=O [Compound 5a, 6-Bromo-3-(1-((4-(4-bromophenyl)-3-methylthiazol-2(3H)-ylidene)hydrazono)ethyl)-2H-chromen-2-one]	75	54	102	–	IC50 (CDK4 enzyme): 142 nM
C/C(=N\N=c1/scc(-c2ccc(Br)cc2)n1-c1ccccc1)c1cc2cc(Br)ccc2oc1=O [Compound 5b, 6-Bromo-3-(1-((4-(4-bromophenyl)-3-phenylthiazol-2(3H)-ylidene)hydrazono)ethyl)-2H-chromen-2-one]	414	305	305	229	–
CC(=NN=C1SC(CC(=O)O)C(=O)N1C)c1cc2cc(Br)ccc2oc1=O (stereo not shown) [Compound 6a, 2-(2-((1-(6-Bromo-2-oxo-2H-chromen-3-yl)ethylidene)hydrazono)-3-methyl-4-oxothiazolidin-5-yl)acetic acid]	131	95	55	280	–
CC(=NN=C1SC(CC(=O)O)C(=O)N1c1ccccc1)c1cc2cc(Br)ccc2oc1=O (stereo not shown) [Compound 6b, 2-(2-((1-(6-Bromo-2-oxo-2H-chromen-3-yl)ethylidene)hydrazono)-4-oxo-3-phenylthiazolidin-5-yl)acetic acid]	101	77	55	251	–
O=c1oc2ccc(Br)cc2cc1-c1csc(N/N=C/c2ccccc2)n1 [Compound 9a]	91	34	60	–	IC50 (CDK4 enzyme): 131 nM
Cc1ccc(C=NNc2nc(-c3cc4cc(Br)ccc4oc3=O)cs2)cc1 [Compound 9b]	522	386	295	250	–
COc1ccc(C=NNc2nc(-c3cc4cc(Br)ccc4oc3=O)cs2)cc1OC [Compound 9c]	649	244	479	238	–
O=c1oc2ccc(Br)cc2cc1-c1csc(NN=Cc2ccc([N+](=O)[O-])cc2)n1 [Compound 9d]	901	513	780	–	–
CN(C)c1ccc(C=NNc2nc(-c3cc4cc(Br)ccc4oc3=O)cs2)cc1 [Compound 9e]	507	242	432	253	–
O=c1oc2ccc(Br)cc2cc1-c1csc(NN=Cc2ccc(F)cc2)n1 [Compound 9f]	495	200	276	278	–
O=c1oc2ccc(Br)cc2cc1-c1csc(NN=Cc2ccc(Br)cc2)n1 [Compound 9g]	744	441	488	267	–
Cc1ccc(C=NNc2nc(-c3cc4cc(Br)ccc4oc3=O)cs2)o1 [Compound 9h]	574	340	534	–	–
O=c1oc2ccc(Br)cc2cc1-c1csc(NN=Cc2ccc([N+](=O)[O-])o2)n1 [Compound 9i]	189	75	124	–	IC50 (CDK4 enzyme): 193 nM
CN1CC[C@H](c2c(O)cc(O)c3c(=O)cc(-c4ccccc4Cl)oc23)[C@H](O)C1 [Flavopiridol, reference compound]	2.41	1.14	4.45	–	–
CC(C)(C)c1cnc(CSc2cnc(Nc3ccc(S(=O)(=O)NCCO)cc3)s2)o1 [IX]	–	–	–	–	IC50 (CDK4 [1]; [3]): 233 nM
CC(C)(CO)CNCc1ccc(Nc2ncc(SCc3ncc(C(C)(C)C)o3)s2)nc1 [VIII]	–	–	–	–	IC50 (CDK4 [1]; [3]): 26 nM
CSc1nc(C)c(-c2ccnc(Nc3ccc(N4CCN(C)CC4)cn3)n2)s1 [VIIa]	–	–	–	–	Ki (CDK4 [2]): 7 nM; Ki (CDK6): 42 nM
CSc1nc(C)c(-c2nc(Nc3ccc(N4CCN(C)CC4)cn3)ncc2C#N)s1 [VIIb]	–	–	–	–	Ki (CDK4 [2]): 4 nM; Ki (CDK6): 30 nM
c1cnc(Nc2ncc(-c3ccnc(OC4CCCCC4)n3)s2)nc1 [Va]	–	–	–	–	IC50 (CDK4 [1]; 2-aminothiazoles of Banyu): 4.2 nM
Cc1cc(-c2cnc(Nc3ncccn3)s2)nc(OC2CCCCC2)n1 [Vb]	–	–	–	–	IC50 (CDK4 [1]; 2-aminothiazoles of Banyu): 34 nM
Cc1cc(-c2cnc(Nc3nccc(CN4CCN(C)CC4)n3)s2)nc(OC2CCCCC2)n1 [Vc]	–	–	–	–	IC50 (CDK4 [1]; 2-aminothiazoles of Banyu): 9.2 nM
